Read-outs that look alike come from different tables or passages of the source. Residues, ends and D or L forms follow the SMILES beside them. *: point of attachment. Cbz = O=C(OCc1ccccc1)*
Legend:
SLC16A11 [1] = assay: Compound treatment, SLC16A11 expression by ddPCR in SNU761 cells; type: cell-based, human; settings: SNU761 cells
Summary of the method: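 SNU761 hepatocellular carcinoma cells, plated 24 h, treated with compounds at 10 μM final or vehicle, with treatment times matching the LINCS dataset. SLC16A11 mRNA quantified by TaqMan droplet digital PCR, normalized to TBP or HPRT1.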

SLC16A11 [2] = assay: Compound treatment, SLC16A11 expression by ddPCR in NCIH716 cells; type: cell-based, human; settings: same concentrations and treatment times as LINCS
Protocol: A small number of the compounds that made the strongest positive connections to the SLC16A11 gene expression signature were selected and tested. […] Methotrexate was also included, which had been annotated as a dihydrofolate reductase inhibitor. SNU761 cells (derived from a human hepatocellular carcinoma) and NCIH716 cells (derived from a human cecum adenocarcinoma), which both express SLC16A11, were treated with the compounds. The same compound concentrations and treatment times were used as in the LINCS dataset experiments. […] For normalization, a different housekeeper gene, HPRT1, was used and obtained similar results with the mTOR inhibitors (FIGS. 14A and 14B).
SNU761 (human hepatocellular carcinoma) and NCIH716 (human cecum adenocarcinoma) were cultured in RPMI Medium 1640 supplemented with 10% Fetal Bovine Serum (FBS), 100 μg/ml Streptomycin and 100 U/ml Penicillin. Cells were grown in a humidified CO2 incubator, at 37° C.
For the unbiased approach taken to investigate the compounds that connected to the SLC16A11 gene expression signature, compounds were obtained from compound management at the Broad Institute.
(§1) SNU761 and NCIH716 cells were plated into 96 well plates at a density of 20,000 cells per well. Hepatocytes were plated into collagen coated 96 well plates (Corning, 354408) at a density of 50,000 cells per well. After 24 hours, cells were treated with compounds at a final concentration of 10 μM or vehicle control for the appropriate amount of time.
At the time of collection, cells in 96 well plates were lysed by directly adding 50 μL of RLT buffer (Qiagen). […]
(§2) RNA was DNase treated and converted into cDNA using the High-Capacity RNA-to-cDNA kit (Thermo Fisher Scientific). The following FAM-labeled TaqMan Real-Time PCR assays (Thermo Fisher Scientific) were used to quantify gene expression: SLC16A11 (Hs00601062_g1), SLC16A13 (Hs00416832_m1), SLC16A1 (Hs01560299_m1). […] Droplets were generated and analyzed using a QX200 Droplet Generator and Reader system (BioRad). Data was extracted using QuantaSoft (BioRad) and analyzed using Microsoft Excel.

SLC16A1 [3] = assay: Compound treatment, SLC16A1 expression by ddPCR in SNU761 cells; type: cell-based, human; settings: 10 μM for 24 hours
Protocol: (§3) FIGS. 14A-14D provide graphs showing that mTOR inhibitors increase SLC16A11, but not SLC16A1 transcript levels. […] SLC16A11 (FIGS. 14A and 14B) and SLC16A1 (FIGS. 14C and 14D) expression was then assessed using droplet digital PCR (ddPCR). Bar plots depict relative fold-changes with respect to DMSO and error bars and standard deviations. Expression is normalized to housekeeping genes TBP or HPRT1.
(§4) A small number of the compounds that made the strongest positive connections to the SLC16A11 gene expression signature were selected and tested. […] Methotrexate was also included, which had been annotated as a dihydrofolate reductase inhibitor. SNU761 cells (derived from a human hepatocellular carcinoma) and NCIH716 cells (derived from a human cecum adenocarcinoma), which both express SLC16A11, were treated with the compounds. […]
as §2

SLC16A1 [4] = assay: Compound treatment, SLC16A1 expression by ddPCR in NCIH716 cells; type: cell-based, human; settings: 10 μM for 24 hours
Protocol: as §3, §4, §2

SLC16A11 [5] = assay: Compound treatment, SLC16A11 expression by ddPCR in primary human hepatocytes; type: cell-based; settings: vs DMSO
Protocol: (§5) SLC16A11 (denoted by A11 when normalized by TBP and A11* for HPRT1), SLC16A13 (A13), and SLC16A1 (A1) in comparison with DMSO treated cells.
(§6) Primary human hepatocytes were purchased from Bioreclamation IVT. Hepatocyte lot used was BHL. Cells were thawed and immediately resuspended in CP media (Bioreclamation IVT) supplemented with torpedo antibiotic (Bioreclamation IVT). Cell concentration and viability were assessed prior to use. Cells were grown in a humidified CO2 incubator, at 37° C.
as §1, with “time. […]” for “time.”
as §2

SLC16A13 = assay: Compound treatment, SLC16A13 expression by ddPCR in primary human hepatocytes; type: cell-based; settings: vs DMSO
Protocol: as §5, §6
as §1, with “time. […]” for “time.”
as §2

SLC16A1 [6] = assay: Compound treatment, SLC16A1 expression by ddPCR in primary human hepatocytes; type: cell-based; settings: vs DMSO
Protocol: as §5, §6
as §1, with “time. […]” for “time.”
as §2

SLC16A11 (A11) = assay: ddPCR based screening assay for modulators of SLC16A11 expression (Z′); type: cell-based, human; settings: SNU 761 cells; compound as positive control
Description: As detailed herein above, SLC16A11 (A11) belongs to a family of monocarboxylate transporters. Expression of A11 was studied in SNU 761 cell lines. These liver cancer cells are ideal for studying SLC16A11 expression because A11 is expressed in higher quantity in liver cells, although expression of the gene in all tissues is extremely low. The 5 SNP risk haplotype causes lowered expression and interferes with protein-protein interactions between A11 and a cofactor protein, indicating loss of function. Therefore, increasing A11 expression in individuals with the risk haplotype is likely beneficial.
The quality of an assay can be quantified by Z′, a measure of how well the assay can differentiate between the positive and negative controls. Using the formula: […]
First the cells were treated with inhibitor compounds, their RNA was extracted, and that RNA was used as a template to create DNA. Then, the DNA was quantified using droplet digital PCR (ddPCR), analyzed and quantified using QuantaSoft™ (BioRad). […]
From the QuantaSoft scoring of each droplet, the means and standard deviations of SLC16A11 expression levels was determined in response to compound treatment. […] Points in light gray had the gene of interest and were scored as positive (FIG. 17C). SLC16A11 was scored in the graph. […]

panel of 260 kinases = settings: concentrations up to 10 μmol/L, cited from earlier work
SLC16A11 protein = assay: Proteasomal degradation: SLC16A11 protein levels by Western blot; type: cell-based, human; settings: HuH7 cells stably expressing SLC16A11^REF-V5; 5 μM for 3 hrs
Protocol: FIG. 5D (top panel) provides two Western blots showing that SLC16A11 is degraded by the proteasome and has a short half-life relative to other SLC16 family members. […] HEK293T cells expressing V5-tagged SLC16A11^REF, SLC16A13, or SLC16A1 were treated with cycloheximide (10 μg/mL) for the indicated times. Note that the SLC16A11, SLC16A13, and SLC16A1 images are from different exposure times. […] HuH7 cells stably expressing SLC16A11^REF-V5 were treated with MG132 (5 μM) or cyclohexamide for 3 hrs. FIG. 5D (bottom panel) provides Western blot showing SLC16A11 and BSG co-immunoprecipitations. (5D-A-5D-C): Co-immunoprecipitation of SLC16A11 and BSG confirms the reduced interaction between SLC16A11^T2D and BSG in HEK293T cells. BSG is glycosylated and runs as multiple bands by reducing SDS-PAGE. Molecular weight markers (kDa) are indicated. (5D-A): Interaction of BSG-V5 with immunoprecipitated SLC16A11-HA. (5D B): Interaction of SLC16A11-HA with immunoprecipitated BSG-V5. (C) Interaction of endogenous BSG with immunoprecipitated SLC16A11-HA. […]
Total protein concentration was measured using a BCA assay (Thermo Fisher Scientific) and equal quantities of protein were loaded on each gel. […] Signals were detected with HRP-conjugated secondary antibodies, followed by chemiluminescent detection and autoradiography. […]

| SMILES | SLC16A11 (A11) transcript levels, dose response curve (SLC16A11 [1]; FIG. 16 top panel) | SLC16A11 transcript levels, compound treated compared to DMSO treated cells (SLC16A11 [1]; same concentrations and treatment times as LINCS, ddPCR) | avg_fc (SLC16A11 expression, compound treated vs DMSO treated cells) (SLC16A11 [1]; same doses and treatment times as in the LINCS dataset) | increase in SLC16A11 expression, compound treated compared to DMSO treated cells (SLC16A11 [1]; unbiased test of 59 top and 20 middle LINCS compounds, LINCS doses and times) [fold] | SLC16A11 transcript levels, compound treated compared to DMSO treated cells (SLC16A11 [2]) | SLC16A1 expression with respect to DMSO (SLC16A1 [3]) | SLC16A1 expression with respect to DMSO (SLC16A1 [4]) | SLC16A11 expression (SLC16A11 [5]) | SLC16A13 expression (SLC16A13) | SLC16A1 expression (SLC16A1 [6]) | A11 expression in manual ddPCR assay (SLC16A11 (A11)) | activity against a panel of 260 kinases (panel of 260 kinases) | activity against a panel of 260 kinases (panel of 260 kinases; listed as AZD8055) | SLC16A11 protein levels (SLC16A11 protein) |
| --- | --- | --- | --- | --- | --- | --- | --- | --- | --- | --- | --- | --- | --- | --- |
| COc1ccc(-c2ccc3c(N4CCOC[C@@H]4C)nc(N4CCOC[C@@H]4C)nc3n2)cc1CO [AZD-8055, [5-[2,4-Bis((3S)-3-methylmorpholin-4-yl)pyrido[2,3-d]pyrimidin-7-yl]-2-methoxyphenyl]methanol] | increase | about 3 fold | 4.253 | ~4 | about 3 fold | slight decrease | slight decrease | increase SLC16A11 expression | decreased | decreased | increased | not show significant activity | no significant activity | – |
| CC(C)C[C@@H](C=O)NC(=O)[C@H](CC(C)C)NC(=O)[C@H](CC(C)C)NC(=O)OCc1ccccc1 [MG132] (Cbz-Leu-Leu-Leu-aldehyde) | – | – | – | – | – | – | – | – | – | – | – | – | – | increased |
